The subject of test [1] is 4 species of Lactobacillus bifidus. The experiment in a line: Mean consumption speed-accelerating activity of 4 species of test bacteria. Format: cell-based, Bifidobacterium adolescentis, breve, bifidum, longum. The conditions noted are these: 8 hours; for Mean consumption speed-accelerating activity of 4 species of test bacteria: Table 3, raffinose + other oligosaccharide; for Mean consumption speed-accelerating activity of 4 species of test bacteria / Mean consumption speed-accelerating activity of 4 species: total 2.0% in place of 2.0% glucose; for Mean consumption speed-accelerating activity of 4 species: Table 2, raffinose + lactulose. Here is the method: Bifidobacterium bifidum BB-225, Bifidobacterium adolescentis BB-102, Bifidobacterium breve BB-308, Bifidobacterium longum BB-536. Cultivation was performed as in above-mentioned Preliminary Test 1 and the sugar consumption speed was calculated by the following formula and comparative studies were performed, using the increment increase in turbidity of each medium up to 8 hours later as the index. Consumption speed-accelerating effect (fold)=(increase in turbidity after 8 hours in test medium)/(increase in turbidity after 8 hours in basic medium) The same four species of Lactobacillus bifidus as used in above-mentioned Preliminary Test 2 were employed. The basic culture medium and pre-cultivation solution were prepared as for above-mentioned Preliminary Test 1. The test culture medium was prepared changing the total amount of each of the desired raffinose and oligosaccharide to 2.0% in place of the 2.0% glucose in the basic medium and the addition ratio to 13 steps. The oligosaccharides that were used were the same as in above-mentioned Preliminary Test 2, and cultivation, determination of turbidity and assessment of the sugar consumption speed-accelerating activity were performed by the same methods as in above-mentioned Preliminary Test 2. The consumption speed-accelerating effect of each of the 4 strains of Lactobaccilus bifidus tested, as well as the average consumption speed-accelerating effect of the 4 species tested, in a culture medium that used a combination of raffinose and lactulose are shown in Table 2 and the average consumption speed-accelerating effect in each of the 4 species of bacteria tested with various test media other than medium using raffinose and lactulose are shown in Table 3.

Test [2] relates to Bifidobacterium breve BB-308. As to the kind of experiment: Consumption speed-accelerating effect (increase in turbidity after 8 hours, test medium / glucose basic medium). Format: cell-based. The conditions noted are these: for Consumption speed-accelerating effect, Bifidobacterium breve: Table 1, single oligosaccharide in place of glucose; for Consumption speed-accelerating effect, B breve: Table 2, raffinose + lactulose, total 2.0% in place of 2.0% glucose. As for the experimental part: (§1) Bifidobacterium bifidum BB-225, Bifidobacterium adolescentis BB-102, Bifidobacterium breve BB-308, Bifidobacterium longum BB-536. The basic culture medium and pre-cultivation solution were prepared as in above-mentioned Preliminary Test 1. The test culture medium was prepared using the following 7 types of oligosaccharides, which are widely used as Lactobacillus bifidus growth factor, in place of glucose: Raffinose (Nihon […] Seito Co., Ltd.), lactulose (Morinaga Milk Industry Co., Ltd.), galacto-oligosaccharide (Nisshin Seito Co., Ltd.), lactosucrose (Hayashibara Shoji Co., Ltd.), fructo-oligosaccharide (Meiji Seika Co., Ltd.), isomalto-oligosaccharide (Hayashibara Shoji Co., Ltd.), and xylo-oligosaccharide (Santori Co., Ltd.). Cultivation was performed as in above-mentioned Preliminary Test 1 and the sugar consumption speed was calculated by the following formula and comparative studies were performed, using the increment increase in turbidity of each medium up to 8 hours later as the index. Consumption speed-accelerating effect (fold)=(increase in turbidity after 8 hours in test medium)/(increase in turbidity after 8 hours in basic medium) The basic culture medium and pre-cultivation solution were prepared as for above-mentioned Preliminary Test 1. The test culture medium was prepared changing the total amount of each of the desired raffinose and oligosaccharide to 2.0% in place of the 2.0% glucose in the basic medium and the addition ratio to 13 steps. The oligosaccharides that were used were the same as in above-mentioned Preliminary Test 2, and cultivation, determination of turbidity and assessment of the sugar consumption speed-accelerating activity were performed by the same methods as in above-mentioned Preliminary Test 2.

In test [3] the test system is Bifidobacterium longum BB-536. Described as above. In kind it is cell-based. To be noted: for Consumption speed-accelerating effect, Bifidobacterium longum: Table 1, single oligosaccharide in place of glucose; for Consumption speed-accelerating effect, B longum: Table 2, raffinose + lactulose, total 2.0% in place of 2.0% glucose. Here is the method: as §1
The test system of test [4] is Bifidobacterium bifidum BB-225. The test is described as above. Format: cell-based. To be noted: for Consumption speed-accelerating effect, Bifidobacterium bifidum: Table 1, single oligosaccharide in place of glucose; for Consumption speed-accelerating effect, B. bifidum: Table 2, raffinose + lactulose, total 2.0% in place of 2.0% glucose. Here is the method: as §1
Test [5] has as its system Bifidobacterium adolescentis BB-102. The test is described as above. Format: cell-based. The conditions noted are these: for Consumption speed-accelerating effect, Bifidobacterium adolescentis: Table 1, single oligosaccharide in place of glucose; for Consumption speed-accelerating effect, B. adolescentis: Table 2, raffinose + lactulose, total 2.0% in place of 2.0% glucose. Here is the method: as §1

The subject of test [6] is Bifidobacterium longum BB-536. As to the kind of experiment: Preliminary Test 1: change over time in medium turbidity (growth curve) with different sugar sources. In kind it is cell-based. The conditions noted are these: sugar in place of glucose in basic medium; up to 24 hours of cultivation at 37° C.; turbidity 660 nm. As for the experimental part:
This test was performed in order to investigate changes over time in medium turbidity and determine if measurement of turbidity after a certain cultivation time is valid for assessing the speed with which the Lactobacilluls bifidus consumes sugar:
Bifidobacterium longum BB-536, which is a microorganism belonging to the genus Bifidobacterium, derived from humans that was separated and identified from the feces of healthy adults by conventional methods (Tomonari Mitsuoka, ed., “Research of Bifidus Bacteria,” pages 40˜60, Zaidanhojin Nihon Bifizusukin Senta (Japan Bifidus Bacteria Center), 1994) was used in this test. Furthermore, this strain is stored by the inventors and is available for any person as needed. […]
First, 0.5 ml of each of the above-mentioned cultivation solutions of Lactobacillus bifidus were inoculated in every 2 of the above-mentioned test media and turbidity was immediately measured with a quartz cell at a wavelength of 660 nm and light path length of 10 mm using a spectrophotometer (Hitachi Seisakusho Co., Ltd.). […] Turbidity was measured under the same conditions as previously described at 2-hour intervals and the mean turbidity of the 2 test tubes was calculated as the determination.
Moreover, basic medium containing glucose was simultaneously used as the control and turbidity was similarly determined. […]

Consider `OC[C@H]1O[C@@H](O[C@H]2[C@H](O)[C@@H](O)[C@@H](O[C@]3(CO)O[C@H](CO)[C@@H](O)[C@@H]3O)O[C@@H]2CO)[C@H](O)[C@@H](O)[C@H]1O` [Lacto-sucrose, lactosucrose], for which the “Mean consumption speed-accelerating activity of 4 species of test bacteria” value in test [1] is “(0.63) fold”. The “Consumption speed-accelerating effect, Bifidobacterium breve” value in test [2] is 0.87 fold. Also, in test [3], the “Consumption speed-accelerating effect, Bifidobacterium longum” value came out at 0.78 fold. For the same compound, the “Consumption speed-accelerating effect, Bifidobacterium bifidum” value in test [4] is listed as 0.03 fold. Moreover, the “Consumption speed-accelerating effect, Bifidobacterium adolescentis” value in test [5] was 0.83 fold.

As for `OC[C@H]1O[C@H](OC[C@H]2O[C@H](O[C@]3(CO)O[C@H](CO)[C@@H](O)[C@@H]3O)[C@H](O)[C@@H](O)[C@@H]2O)[C@H](O)[C@@H](O)[C@H]1O` [Raffinose], in test [1], the “Mean consumption speed-accelerating activity of 4 species” value was “(0.82) fold” and the “Mean consumption speed-accelerating activity of 4 species of test bacteria” value is recorded as “(0.82) fold”. For the same compound, the “sugar consumption speed compared with glucose medium (FIG. 1)” value in test [6] is “higher consumption speed than the medium that used glucose”. In test [2], the “Consumption speed-accelerating effect, Bifidobacterium breve” value is reported as 1.15 fold and the “Consumption speed-accelerating effect, B breve” value is reported as “(1.15) fold”. For the same compound, in test [3], the “Consumption speed-accelerating effect, Bifidobacterium longum” value was found to be 1.09 fold and the “Consumption speed-accelerating effect, B longum” value is “(1.09) fold”. For the same compound, in test [4], the “Consumption speed-accelerating effect, Bifidobacterium bifidum” value was determined as 0.02 fold and the “Consumption speed-accelerating effect, B. bifidum” value was “(0.02) fold”. For the same compound, in test [4] (single oligosaccharide in place of glucose), the “availability for Bifidobacterium bifidus (in words)” value is listed as “did not show availability”. In test [5], the “Consumption speed-accelerating effect, Bifidobacterium adolescentis” value was 1.02 fold and the “Consumption speed-accelerating effect, B. adolescentis” value is reported as “(1.02) fold”.

Take `OC[C@H]1O[C@@H](O[C@@H]2[C@@H](CO)OC(O)(CO)[C@H]2O)[C@H](O)[C@@H](O)[C@H]1O` (mixture of isomers) [Lactulose]: the “consumption speed-accelerating activity by Lactobacillus bifidus (in words)” value in test [1] (4 species, compared with glucose medium) is “relatively strong consumption speed-accelerating activity”. Also, in test [1], the “Mean consumption speed-accelerating activity of 4 species” value is reported as “(0.98) fold”. Also, in test [6], the “sugar consumption speed compared with glucose medium (FIG. 1)” value is “approximately the same sugar consumption speed as the medium that used glucose”. Besides, in test [2], the “Consumption speed-accelerating effect, Bifidobacterium breve” value is reported as 1.08 fold and the “Consumption speed-accelerating effect, B breve” value is reported as “(1.08) fold”. Moreover, in test [3], the “Consumption speed-accelerating effect, Bifidobacterium longum” value worked out at 0.92 fold and the “Consumption speed-accelerating effect, B longum” value was “(0.92) fold”. In test [4], the “Consumption speed-accelerating effect, Bifidobacterium bifidum” value came out at 0.96 fold and the “Consumption speed-accelerating effect, B. bifidum” value is on record as “(0.96) fold”. Besides, in test [5], the “Consumption speed-accelerating effect, Bifidobacterium adolescentis” value came to 0.97 fold and the “Consumption speed-accelerating effect, B. adolescentis” value is given as “(0.97) fold”.

Values taken from patent US20020015990A1, “LACTOBACILLUS BIFIDUS GROWTH PROMOTING COMPOSITION AND USE THEREOF” (priority 1996, published 2002).
